Experimental findings from ChEMBL document CHEMBL4622963, “Optimization of Nicotinamides as Potent and Selective IRAK4 Inhibitors with Efficacy in a Murine Model of Psoriasis” (ACS Med Chem Lett, 2020) are described below.

Data set [1] deals with T1, Interleukin-1 receptor-associated kinase 4 (Homo sapiens, UniProt Q9NWZ3).
T1 sequence (Q9NWZ3 whole entry): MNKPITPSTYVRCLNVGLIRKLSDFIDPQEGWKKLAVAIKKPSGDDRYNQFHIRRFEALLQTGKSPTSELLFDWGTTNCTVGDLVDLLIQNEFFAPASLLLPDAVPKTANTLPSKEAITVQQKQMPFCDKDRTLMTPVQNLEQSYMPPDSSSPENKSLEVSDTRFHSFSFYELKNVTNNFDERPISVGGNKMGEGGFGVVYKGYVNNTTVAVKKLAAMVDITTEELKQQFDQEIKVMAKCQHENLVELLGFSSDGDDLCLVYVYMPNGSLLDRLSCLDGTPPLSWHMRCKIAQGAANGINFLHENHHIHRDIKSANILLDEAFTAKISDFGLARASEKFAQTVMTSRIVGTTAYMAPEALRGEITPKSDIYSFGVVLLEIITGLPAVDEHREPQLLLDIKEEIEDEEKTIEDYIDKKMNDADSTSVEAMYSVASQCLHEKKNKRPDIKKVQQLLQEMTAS
Briefly: Inhibition of IRAK4 (unknown origin) using FL-IPTSPITTTYFFFKKK peptide and ATP as substrate incubated for 60 mins by fluorescence based caliper assay.

The next data set is filed under the species Homo sapiens. Kind of data set: Selectivity index, ratio of IC50 for N-terminal His6-tagged human full length recombinant LCK expressed in baculovirus infected Sf21 cells to IC50 for IRAK4 (unknown origin).
The nature of data set [2]: Permeability across apical to basolateral side in human Caco2 cells. Particulars: Caco-2. For orientation: Passage across Caco-2 layers is used to estimate intestinal permeability.
The nature of data set [3]: Stability in mouse liver microsomes assessed as parent compound remaining measured after 10 mins. Type of data set: ADME, Microsome. Particulars: read-out: Stability. (In general: Microsomes from liver hold many membrane-bound enzymes, among them those of drug oxidation.)
The target in a further data set is Cytochrome P450 3A4 (Homo sapiens, UniProt P08684). Briefly: Inhibition of CYP3A4 (unknown origin). The format is ADME.
Cytochrome P450 3A4, sequence (P08684 whole entry): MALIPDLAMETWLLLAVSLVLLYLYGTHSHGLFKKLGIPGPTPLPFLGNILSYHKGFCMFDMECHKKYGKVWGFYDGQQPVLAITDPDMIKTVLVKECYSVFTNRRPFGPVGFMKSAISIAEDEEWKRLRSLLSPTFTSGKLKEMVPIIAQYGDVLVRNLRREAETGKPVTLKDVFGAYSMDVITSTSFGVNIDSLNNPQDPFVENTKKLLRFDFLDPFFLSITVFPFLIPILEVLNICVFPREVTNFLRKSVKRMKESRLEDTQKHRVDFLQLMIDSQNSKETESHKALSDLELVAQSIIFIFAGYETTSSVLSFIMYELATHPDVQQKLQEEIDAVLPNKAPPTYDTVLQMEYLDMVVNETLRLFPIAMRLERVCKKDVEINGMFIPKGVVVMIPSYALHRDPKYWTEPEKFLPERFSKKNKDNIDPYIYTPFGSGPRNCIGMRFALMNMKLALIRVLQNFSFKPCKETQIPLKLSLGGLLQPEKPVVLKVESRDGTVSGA
For data set [4], the target named is T1, Interleukin-1 receptor-associated kinase 4. Kind of data set: Inhibition of IRAK4 in human PBMC assessed as inhibition of LTA-induced IL-6 production preincubated for 30 mins followed by LTA-stimulation and measured after 5 hrs by ELISA. Type of data set: cell-based. Background: In an ELISA, binding on a coated surface is turned into a signal by an enzyme label.

Data set [5] can be described thus: Stability in human liver microsomes assessed as parent compound remaining. The format is ADME, Microsome.
Data set [6] relates to Mus musculus. Briefly: Protection against imiquimod-induced psoriasis in C57BL/6 mouse assessed as inhibition of skin erythema level at 3 mg/kg, po dosed via gavage once daily and measured on day 6 relative to control. Type of data set: functional. To be noted: C57BL/6, po, 144 h.
Data set [7] deals with Mus musculus. Kind of data set: Protection against imiquimod-induced psoriasis in C57BL/6 mouse assessed as inhibition of skin scaling at 3 mg/kg, po dosed via gavage once daily and measured on day 6 relative to control. Type of data set: functional. Particulars: C57BL/6, po, 144 h.

With `CC(C)Nc1cc(Nc2ccc3ncsc3c2)ncc1C(=O)NCCc1ccc(S(N)(=O)=O)cc1`, the half-inhibitory concentration (IC50) (as a rule, the concentration that gives 50% inhibition) is 0.0057 µM in data set [1], 0.9 µM against Cytochrome P450 3A4 and 1.2 µM in data set [4]. Further, the Ratio IC50 in the data set filed under Homo sapiens is 280. For the same compound, in data set [2], the apical-to-basolateral permeability (Papp A→B) (as a rule, the apparent permeability from the apical to the basolateral side of a cell layer) was less than 1.5 ×10⁻⁶ cm/s. Besides, in data set [3], the remaining at 10 min was 38%. For the same compound, the Stability in data set [5] was found to be 17%.

Take `C[C@@H]1C[C@H]2[C@@H]3CCC4=CC(=O)C=C[C@]4(C)[C@@]3(F)[C@@H](O)C[C@]2(C)[C@@]1(O)C(=O)CO` [DEXAMETHASONE]: the inhibition in vivo (commonly the drop in the measured response relative to a control, in per cent) at 3 mg/kg with Mus musculus [6] stood at 37%; in the data set with Mus musculus [7], 45%.
